The text below walks through data of ChEMBL document CHEMBL1201862, “PubChem BioAssay data set” (2004).

Test systems include A498; COLO 205; DU-145; HCC 2998; HOP-62; HOP-92; HT-29; K562; LOX IMVI; M14; MDA-MB-231; NCI-H226; NCI-H522; NCI/ADR-RES; OVCAR-3; OVCAR-4; SF-295; SK-MEL-28; SNB-75; SR.
What all share (assay): NCI tumour cell line growth inhibition, 48 h

Structures are written as SMILES.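 In this assay, cells in 96-well plates receive the compound at five concentrations for 48 hours. Endpoints are linearly interpolated between the surrounding concentrations. GI50 marks 50% less growth.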 Active and inactive are the calls of the source. Cut-off read from the data, not from the text of the source: active = GI50 up to about 1.1 µM and inactive = higher.

As to `CC1=CCC[C@@H]2[C@@](C)(Cc3cc(O)ccc3O)[C@H](C)CC[C@@]12C`, the GI50 was 15.3 µM (inactive) in the assay on A498; 18.2 µM (inactive) in the assay with COLO 205; 10.3 µM (inactive) in the assay on DU-145; 7.66 µM (inactive) in the assay on HCC 2998; 9.62 µM (inactive) in the assay with HOP-62; 4.84 µM (inactive) in the assay with HOP-92. In addition, the GI50 with HT-29 is 17.7 µM (inactive); in the assay with K562 it was 3.48 µM (inactive); in the assay on LOX IMVI, 4.99 µM (inactive); in the assay on M14, 4.94 µM (inactive); in the assay on MDA-MB-231 it was 11.9 µM (inactive); in the assay with NCI-H226, 16.2 µM (inactive). For the same molecule, the GI50 in the assay with NCI-H522 was 4.83 µM (inactive); in the assay on NCI/ADR-RES, 5.24 µM (inactive); in the assay with OVCAR-3 it was 4.69 µM (inactive); in the assay with OVCAR-4, 12.1 µM (inactive); with SF-295 it was 7.28 µM (inactive); with SK-MEL-28, 8.81 µM (inactive). The GI50 was 5.47 µM (inactive) in the assay with SNB-75 and 2.38 µM (inactive) with SR.
For `CCC(=O)NCCc1c[nH]c2ccc(OC)cc12`, the GI50 in the assay with A498, in the assay on COLO 205, in the assay on DU-145, in the assay on HCC 2998, with HOP-62 and with HOP-92 was > 100 µM (inactive) in each case. Besides, the GI50 with HT-29, with K562, in the assay with LOX IMVI, in the assay with M14, in the assay on MDA-MB-231 and in the assay with NCI-H226 was > 100 µM (inactive) each time. For the same molecule, the GI50 in the assay with NCI-H522, with NCI/ADR-RES, in the assay on OVCAR-3, in the assay with OVCAR-4, with SF-295 and in the assay with SK-MEL-28 was > 100 µM (inactive) throughout. In addition, the GI50 in the assay on SNB-75 and in the assay with SR was > 100 µM (inactive) throughout.
`Cc1cccc2c(N)c3cccc(C(=O)NCC[N+](C)(C)Cc4sccc4[N+](=O)[O-])c3nc12`: the GI50 in the assay on A498 was 27 µM (inactive); in the assay with COLO 205, 13.3 µM (inactive); in the assay with DU-145, 23.8 µM (inactive); in the assay on HCC 2998 it was 7.69 µM (inactive); in the assay with HOP-62, 2.6 µM (inactive); in the assay with HOP-92, 34.5 µM (inactive). In addition, the GI50 in the assay with HT-29 is 3.21 µM (inactive); in the assay on K562, 3.64 µM (inactive); in the assay on LOX IMVI, 13.5 µM (inactive); with M14, 13.8 µM (inactive); in the assay with MDA-MB-231, 12 µM (inactive); in the assay on NCI-H226, 6.18 µM (inactive). Further, the GI50 with NCI-H522 is 2.64 µM (inactive); with NCI/ADR-RES it was 51.4 µM (inactive); in the assay on OVCAR-3 it was 19.5 µM (inactive); with OVCAR-4, 12.3 µM (inactive); in the assay on SF-295, 2.64 µM (inactive); in the assay on SK-MEL-28, 37.3 µM (inactive). Further, the GI50 in the assay on SNB-75 is 7.28 µM (inactive); with SR, 0.398 µM (active).
Turning to `N=C1OC(CN2CCN(c3ccccc3)CC2)CN1C(=S)Nc1ccccc1` (stereo unspecified), the GI50 with A498 was 89.9 µM (inactive); with COLO 205 it was > 100 µM (inactive); in the assay with DU-145, > 100 µM (inactive); with HCC 2998, > 100 µM (inactive); in the assay on HOP-62, 45.5 µM (inactive); with HOP-92 it was 21.9 µM (inactive). Besides, the GI50 in the assay on HT-29 is 49.7 µM (inactive); in the assay on K562, 33.9 µM (inactive); in the assay with LOX IMVI, 25.3 µM (inactive); with M14 it was 55 µM (inactive); in the assay on MDA-MB-231, > 100 µM (inactive); in the assay on NCI-H226, 78.9 µM (inactive). Also, the GI50 was 28.9 µM (inactive) with NCI-H522; 45.4 µM (inactive) in the assay with NCI/ADR-RES; 42.8 µM (inactive) with OVCAR-3; > 100 µM (inactive) in the assay with OVCAR-4; 32.7 µM (inactive) in the assay on SF-295; 84.3 µM (inactive) with SK-MEL-28. Besides, the GI50 in the assay with SNB-75 was 31 µM (inactive); in the assay on SR, 29.8 µM (inactive).
As for `CC(=O)N(C(C)=O)c1ncc(-n2nc(-c3ccccc3)cc2-c2ccccc2)c(-c2ccccc2)n1`, the GI50 in the assay on A498, in the assay on COLO 205, with DU-145, in the assay on HCC 2998, in the assay with HOP-62 and in the assay with HOP-92 was > 10 µM (inactive) in each case. Also, the GI50 in the assay with HT-29 was 4.65 µM (inactive); in the assay with K562, > 10 µM (inactive); with LOX IMVI it was 6.73 µM (inactive); in the assay on M14, > 10 µM (inactive); with MDA-MB-231, > 10 µM (inactive); in the assay with NCI-H226, > 10 µM (inactive). The GI50 in the assay with NCI-H522, with NCI/ADR-RES, with OVCAR-3, with OVCAR-4, with SF-295 and in the assay with SK-MEL-28 was > 10 µM (inactive) each time. The GI50 was > 10 µM (inactive) in the assay on SNB-75 and 3.5 µM (inactive) in the assay on SR.
`O=C(Nc1ccc2ccccc2c1)c1cc2cc(CCl)ccc2oc1=O`: the GI50 is > 100 µM (inactive) in the assay with A498; > 100 µM (inactive) in the assay on COLO 205; > 100 µM (inactive) in the assay on DU-145; > 100 µM (inactive) in the assay on HCC 2998; 53.5 µM (inactive) in the assay with HOP-62; 51.5 µM (inactive) in the assay with HOP-92. In addition, the GI50 is > 100 µM (inactive) in the assay with HT-29; 54 µM (inactive) with K562; > 100 µM (inactive) in the assay with LOX IMVI; > 100 µM (inactive) in the assay on M14; 49 µM (inactive) with MDA-MB-231; 57.5 µM (inactive) in the assay with NCI-H226. The GI50 was 74 µM (inactive) with NCI-H522; > 100 µM (inactive) with NCI/ADR-RES; > 100 µM (inactive) in the assay with OVCAR-3; > 100 µM (inactive) with OVCAR-4; 33.3 µM (inactive) with SF-295; > 100 µM (inactive) with SK-MEL-28. For the same molecule, the GI50 is 15.2 µM (inactive) in the assay with SNB-75 and > 100 µM (inactive) in the assay on SR.
On to `CCNC(=O)NNc1ncnc2c1c(-c1ccc(Cl)cc1)cn2-c1ccc(C)cc1`, for which the GI50 in the assay on A498 is 15.7 µM (inactive); with COLO 205, 15.9 µM (inactive); in the assay with DU-145, 21.5 µM (inactive); in the assay with HCC 2998 it was 17.5 µM (inactive); with HOP-62, 20.4 µM (inactive); in the assay with HOP-92, 18.2 µM (inactive). The GI50 was 18.3 µM (inactive) in the assay on HT-29; 18.6 µM (inactive) in the assay with K562; 17.7 µM (inactive) in the assay on LOX IMVI; 17.7 µM (inactive) with M14; 19.6 µM (inactive) in the assay on MDA-MB-231; 20 µM (inactive) with NCI-H226. Besides, the GI50 in the assay with NCI-H522 was 17.9 µM (inactive); with NCI/ADR-RES, 20 µM (inactive); in the assay with OVCAR-3, 16.7 µM (inactive); in the assay on OVCAR-4 it was 11.5 µM (inactive); in the assay on SF-295, 15.7 µM (inactive); in the assay on SK-MEL-28 it was 18.9 µM (inactive). For the same molecule, the GI50 in the assay with SNB-75 was 16.7 µM (inactive); in the assay with SR, 20.2 µM (inactive).
Consider `CN(C)c1ccc(/N=C2/NC(=N\c3ccccc3)/C(=N/c3ccccc3)S2)cc1`, for which the GI50 in the assay with A498 was 87.3 µM (inactive); in the assay with COLO 205, > 100 µM (inactive); in the assay on DU-145, > 100 µM (inactive); with HCC 2998, > 100 µM (inactive); with HOP-62 it was 41.6 µM (inactive); with HOP-92, > 100 µM (inactive). The GI50 with HT-29 is > 100 µM (inactive); with LOX IMVI it was 37.6 µM (inactive); in the assay with M14 it was > 100 µM (inactive); in the assay with MDA-MB-231 it was > 100 µM (inactive); in the assay on NCI-H226, > 100 µM (inactive); in the assay with NCI-H522, 5.64 µM (inactive). In addition, the GI50 in the assay with NCI/ADR-RES is > 100 µM (inactive); in the assay on OVCAR-3 it was > 100 µM (inactive); in the assay with OVCAR-4 it was > 100 µM (inactive); in the assay with SF-295, > 100 µM (inactive); with SK-MEL-28, > 100 µM (inactive); in the assay on SNB-75 it was 27.2 µM (inactive). In addition, the GI50 in the assay on SR was > 100 µM (inactive).
`Cc1ccc(C2=Nc3c(N)nc(N)nc3NC(c3ccccc3)C2)cc1` (stereo unspecified): the GI50 in the assay with A498 is 11.4 µM (inactive); with DU-145 it was 14.8 µM (inactive); in the assay with HCC 2998 it was 7.41 µM (inactive); in the assay with HOP-62, 12.5 µM (inactive); in the assay on HOP-92, 10.3 µM (inactive); in the assay on HT-29 it was 3.99 µM (inactive). Moreover, the GI50 in the assay with K562 is 4.06 µM (inactive); with LOX IMVI, 11 µM (inactive); with M14, 8.26 µM (inactive); with MDA-MB-231, 7.4 µM (inactive); in the assay with NCI-H226, 14.3 µM (inactive); with NCI-H522 it was 3.65 µM (inactive). Moreover, the GI50 with NCI/ADR-RES was 4.34 µM (inactive); in the assay with OVCAR-3 it was 11.8 µM (inactive); in the assay with OVCAR-4 it was 13.9 µM (inactive); in the assay with SK-MEL-28 it was 12 µM (inactive); with SNB-75, 15.2 µM (inactive); in the assay with SR, 6.92 µM (inactive).
For `O=C1CSC(c2cccc(Cl)c2)N1c1ccc(-c2ccc(-n3c(-c4ccccc4)nc4ccccc4c3=O)cc2)cc1` (stereo unspecified), the GI50 was > 100 µM (inactive) with A498; 34.6 µM (inactive) with COLO 205; 53.7 µM (inactive) with DU-145; 15.1 µM (inactive) in the assay with HCC 2998; 67.8 µM (inactive) in the assay on HOP-62; 17.1 µM (inactive) with HOP-92. For the same molecule, the GI50 in the assay on HT-29 is 38.9 µM (inactive); with K562, 35.6 µM (inactive); in the assay on LOX IMVI, 35.1 µM (inactive); in the assay on M14, 53.6 µM (inactive); in the assay on MDA-MB-231, 50.6 µM (inactive); with NCI-H226 it was 67 µM (inactive). The GI50 in the assay on NCI-H522 is 41.6 µM (inactive); in the assay on NCI/ADR-RES, 36.9 µM (inactive); in the assay on OVCAR-3 it was 36 µM (inactive); in the assay with OVCAR-4, 35.1 µM (inactive); in the assay with SF-295, 51.8 µM (inactive); with SK-MEL-28 it was 75.3 µM (inactive). Besides, the GI50 in the assay on SR is 18.9 µM (inactive).
